The text below walks through data of patent US20230365563A1, “QUINAZOLINE COMPOUND AND APPLICATION THEREOF” (SHANGHAI PHARMACEUTICALS HOLDING CO., LTD., priority 2020, published 2023).

Where a name gives a salt, the structure may show the parent alone.

One experiment deals with T1, KRAS-G12D and SOS1 (Homo sapiens, UniProt P01116, G12D).
T1 construct: purchased
The experiment in a line: Inhibition of KRAS-G12D/SOS1 binding (Cisbio binding kit, 665/615 ratio), Effect Embodiment A. Conditions: read-out: GTP-KRAS-G12D:SOS1 IC50. The essentials:
(§1)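 Test compounds were serially diluted 3-fold from the storage solution over 11 points and dispensed in duplicate wells at 1% final DMSO.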

Another experiment has as its target T2, KRAS_G12D and cRAF (Homo sapiens, UniProt P01116, G12D).
T2 construct: purchased
Put plainly: Inhibition of KRAS_G12D/cRAF binding (Cisbio binding kit, 665/615 ratio), Effect Embodiment B. Conditions: read-out: GTP-KRAS-G12D:CRAF IC50. An outline of the steps:
as §1

The target of the next experiment is T3, KRAS_WT and SOS1 (Homo sapiens, UniProt P01116).
T3 construct: purchased
T3 sequence (P01116 1-188 isoform P01116-2): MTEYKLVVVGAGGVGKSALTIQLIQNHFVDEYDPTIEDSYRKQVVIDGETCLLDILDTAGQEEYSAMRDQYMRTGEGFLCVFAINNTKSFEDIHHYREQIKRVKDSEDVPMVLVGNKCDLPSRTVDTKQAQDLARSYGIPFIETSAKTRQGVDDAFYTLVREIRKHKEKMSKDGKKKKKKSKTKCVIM
The experiment in a line: Inhibition of KRAS_WT/SOS1 binding (Cisbio binding kit, 665/615 ratio), Effect Embodiment C. The settings on record: read-out: GTP-KRAS-WT:SOS1 IC50. The essentials:
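Compounds tested as 3-fold, 11-point dilutions in duplicate at 1% DMSO final against the KRAS_WT/SOS1 binding system. IC50 derived by nonlinear regression fit.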

What is called IC50 is the concentration at which inhibition is half-maximal.

T1 sequence (P01116 1-188 isoform P01116-2 G12D): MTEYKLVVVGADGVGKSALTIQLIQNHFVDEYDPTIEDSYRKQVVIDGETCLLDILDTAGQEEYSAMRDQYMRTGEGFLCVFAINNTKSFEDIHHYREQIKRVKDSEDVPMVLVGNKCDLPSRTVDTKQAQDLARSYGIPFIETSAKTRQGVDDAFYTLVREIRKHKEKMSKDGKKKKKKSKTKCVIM
T2 sequence (P01116 1-188 isoform P01116-2 G12D): as above

Take `CN1C[C@H](F)C[C@H]1COc1nc(N2CC3CCC(C2)N3)c2cc(Cl)c(-c3cc(O)cc4ccccc34)c(F)c2n1` (single isomer, unassigned) [Compound 168, (R or S)-4-(4-((1R,5S)-3,8-diazabicyclo[3.2.1]octan-3-yl)-6-chloro-8-fluoro-2-((2S,4R)-4-fluoro-1-methylpyrrolidin-2-yl)methoxy)quinazolin-7-yl)naphthalenol dihydrochloride]: the half-maximal inhibitory concentration (IC50) on KRAS-G12D and SOS1 came to 18.7 nM; on KRAS_G12D and cRAF, 22.4 nM; on KRAS_WT and SOS1, 458 nM.
For `Oc1cc(-c2c(Cl)cc3c(N4CC5CCC(C4)N5)nc(OCCCN4CC5CCC(C4)O5)nc3c2F)c2ccccc2c1` (single isomer, unassigned) [Compound 188, 4-((7R or S)-2-(3-(8-oxa-3-azabicyclo[3.2.1]octan-3-yl)propoxy)-4-((1R,5S)-3,8-diazabicyclo[3.2.1]octan-3-yl)-6-chloro-8-fluoroquinazolin-7-yl)naphthalen-2-ol formate] the same measures were 35.6 nM, 133 nM and 1020 nM.
For `Oc1cc(Cl)c(C2CC2)c(-c2c(Cl)cc3c(N4CC5CCC(C4)N5)nc(OC[C@@]45CCCN4C[C@H](F)C5)nc3c2F)c1` (single isomer, unassigned) [Compound 198a, 3-((R or S)-4-((1R,5S)-3,8-diazabicyclo[3.2.1]octan-3-yl)-6-chloro-8-fluoro-2-((2R,7aS)-2-fluorotetrahydro-1H-pyrrolin-7a(5H)-yl)methoxy)quinazolin-7-yl)-5-chloro-4-cyclopropylphenol formate] the same measures were 11.4 nM, 6.11 nM and 23.5 nM.
Taken in the same sequence, the figures for `Oc1cc(-c2c(Cl)cc3c(N4CC5CCC(C4)N5)nc(OCC45CCN(CC4)CC5)nc3c2F)c2ccccc2c1` (single isomer, unassigned) [Compound 260, 4-((S or R)-4-((1R,5S)-3,8-diazacyclo[3.2.1]octan-3-yl)-6-chloro-8-fluoro-2-(quinin-4-ylmethoxy)quinazolin-7-yl)naphthalen-2-ol diformate] were 25.9 nM, 157 nM and 4420 nM.
For the compound `Oc1cc(-c2c(Cl)cc3c(N4C[C@H]5CC[C@@H](C4)N5)nc(OCCCN4C[C@@H]5C[C@H]4CO5)nc3c2F)c2ccccc2c1` (single isomer, unassigned) [Compound 165, (R or S)-4-(2-(3-((1S,4S)-2-oxa-5-azabicyclo[2.2.1]heptan-5-yl)propoxy)-4-((1R,5S)-3,8-diazabicyclo[3.2.1]octan-3-yl)-6-chloro-8-fluoroquinazolin-7-yl)naphthalen-2-ol dihydrochloride], the half-maximal inhibitory concentration (IC50) at KRAS-G12D and SOS1 was 27.8 nM; on KRAS_G12D and cRAF it was 85.4 nM; on KRAS_WT and SOS1, 1880 nM.
For `C[C@H](COc1nc(N2CC3CCC(C2)N3)c2cc(Cl)c(-c3cc(O)cc4ccccc34)c(F)c2n1)CN1C[C@@H](C)O[C@@H](C)C1` (single isomer, unassigned) [Compound 206, 4-((S or R)-4-((1R,5S)-3,8-diazabicyclo[3.2.1]octan-3-yl)-6-chloro-2-((S)-3-((2S,6R)-2,6-dimethylmorpholinyl)-2-methylpropoxy)-8-fluoroquinazolin-7-yl)naphthalen-2-ol diformate] the same measures were 46.1 nM, 134 nM and 6830 nM.
For `C[C@@H]1CCCN1CCCOc1nc(N2CC3CCC(C2)N3)c2cc(Cl)c(-c3cc(O)cc4ccccc34)c(F)c2n1` (single isomer, unassigned) [Compound 108a, 4-((S or R)-4-((1R,5S)-3,8-diazabicyclo[3.2.1]octan-3-yl)-6-chloro-8-fluoro-2-(3-((R)-2-methylpyrrolidin-1-yl)propoxy)quinazolin-7-yl)naphthalen-2-ol dihydrochloride] the same measures were 56.3 nM, 212 nM and 2300 nM.
For `CN1CCC[C@H]1COc1nc(N2CCN(C(=O)CN)[C@@H](CC#N)C2)c2cc(Cl)c(-c3cc(O)cc4ccccc34)c(F)c2n1` (single isomer, unassigned) [Compound 155, 2-((S)-4-((S or R)-6-chloro-8-fluoro-7-(3-hydroxynaphthalen-1-yl)-2-((S)-1-methylpyrrolidine-2-yl)methoxy)quinazolin-4-yl)-1-glycylpiperazin-2-yl)acetonitrile ditrifluoroacetate] the same measures were 78.8 nM, 312 nM and 243 nM.
Consider `CN(C)C1CCC(Oc2nc(N3CC4CCC(C3)N4)c3cc(Cl)c(-c4cc(O)cc5ccccc45)c(F)c3n2)C1` (single isomer, unassigned) [Compound 70d, 4-((S or R)-4-((1R,5S)-3,8-diazabicyclo[3.2.1]octan-3-yl)-6-chloro-2-((1R,3R or 1S,3S)-3-(dimethylamino)cyclopentyl)oxy)-8-fluoroquinazolin-7-yl)naphthalen-2-ol dihydrochloride], for which the half-maximal inhibitory concentration (IC50) on KRAS-G12D and SOS1 was found to be 93.9 nM; on KRAS_G12D and cRAF, 356 nM; at KRAS_WT and SOS1 it was 60500 nM.
In the case of `CN1CCC[C@H]1COc1nc(N2CC3CCC(C2)N3)c2cc(F)c(-c3cc(O)cc4ccccc34)c(F)c2n1` [Compound 160, 4-(4-((1R,5S)-3,8-diazabicyclo[3.2.1]octan-3-yl)-6,8-difluoro-2-((S)-1-methylpyrrolidin-2-yl)methoxy)quinazolin-7-yl)naphthalen-2-ol dihydrochloride], the IC50 stood at 27.4 nM on KRAS-G12D and SOS1; 32.4 nM at KRAS_G12D and cRAF; 390 nM on KRAS_WT and SOS1.
For `Oc1cc(-c2c(Cl)cc3c(N4CC5CCC(C4)N5)nc(OCC4CCC5COCCN5C4)nc3c2F)c2ccccc2c1` (single isomer, unassigned) [Compound 264a, 4-((S or R)-4-((1R,5S)-3,8-diazacyclo[3.2.1]octan-3-yl)-6-chloro-8-fluoro-2-((7S or 7R, 9aS or 9aR)-octahydropyridine[2,1-c][1,4]oxazin-7-yl)methoxy)quinazolin-7-yl)naphthalen-2-ol formate] the same measures were 11.7 nM, 32.1 nM and 342 nM.
Taken in the same sequence, the figures for `CN1CCC1CCOc1nc(N2CC3CCC(C2)N3)c2cc(Cl)c(-c3cc(O)cc4ccccc34)c(F)c2n1` (single isomer, unassigned) [Compound 112a, 4-((S or R)-4-((1R,5S)-3,8-diazabicyclo[3.2.1]octan-3-yl)-6-chloro-8-fluoro-2-(2-((S or R)-1-methylazetidin-2-yl)ethoxy)quinazolin-7-yl)naphthalen-2-ol dicarboxylate] were 57.4 nM, 119 nM and 2520 nM.
For `CC1OCCN(CCCOc2nc(N3CC4CCC(C3)N4)c3cc(Cl)c(-c4cc(O)cc5ccccc45)c(F)c3n2)C1C` (single isomer, unassigned) [Compound 265a, 4-((R or S)-4-((1R,5S)-3,8-diazabicyclo[3.2.1]octan-3-yl)-6-chloro-2-(3-((2R or 2S, 3S or 3R)-2,3-dimethylmorpholinyl)propoxy)-8-fluoroquinazolin-7-yl)naphthalen-2-ol diformate] the same measures were 91.2 nM, 286 nM and 5830 nM.
Take `Oc1cc(-c2c(Cl)cc3c(N4CC5CCC(C4)N5)nc(OCCCN4CCC4)nc3c2F)c2ccccc2c1` (single isomer, unassigned) [Compound 59a, 4-((S or R)-2-(3-(azetidin-1-yl)propoxy)-4-((1R,5S)-3,8-diazabicyclo[3.2.1]octan-3-yl)-6-chloro-8-fluoroquinazolin-7-yl)naphthalen-2-ol]: the half-maximal inhibitory concentration (IC50) on KRAS-G12D and SOS1 was found to be 45.4 nM; at KRAS_G12D and cRAF it was 182 nM; on KRAS_WT and SOS1, 2080 nM.
For `C[C@@H](COc1nc(N2CC3CCC(C2)N3)c2cc(Cl)c(-c3cc(O)cc4ccccc34)c(F)c2n1)CN1C[C@@H](C)O[C@H](C)C1` (single isomer, unassigned) [Compound 216, 4-((S or R)-4-((1R,5S)-3,8-diazabicyclo[3.2.1]octan-3-yl)-6-chloro-2-((R)-3-((2R,6R)-2,6-dimethylmorpholinyl)-2-methylpropoxy)-8-fluoroquinazolin-7-yl)naphthalen-ol diformate] the same measures were 51.8 nM, 49.4 nM and 2020 nM.
With `Oc1cc(-c2c(Cl)cc3c(N4CC5CCC(C4)N5)nc(OCCN4CCCCC4)nc3c2F)c2ccccc2c1` (single isomer, unassigned) [Compound 114, 4-((S or R)-4-((1R,5S)-3,8-diazabicyclo[3.2.1]octan-3-yl)-6-chloro-8-fluoro-2-(2-(piperidin-1-yl)ethoxy)quinazolin-7-yl)naphthalen-2-ol dihydrochloride], the IC50 is 37.2 nM on KRAS-G12D and SOS1; 100 nM at KRAS_G12D and cRAF; 4530 nM on KRAS_WT and SOS1.
On to `CN1C[C@@H]2C[C@@H]2[C@H]1COc1nc(N2CC3CCC(C2)N3)c2cnc(-c3cc(O)cc4ccccc34)c(F)c2n1` [Compound 140, 4-(4-((1R,5S)-3,8-diazabicyclo[3.2.1]octan-3-yl)-8-fluoro-2-((1S,2S,5R)-3-methyl-3-azabicyclo[3.1.0]hexan-2-yl)methoxy)pyridin[4,3-d]pyrimidin-7-yl)naphthalen-2-ol dihydrochloride], for which the IC50 at KRAS-G12D and SOS1 is 32.8 nM; on KRAS_G12D and cRAF, 95.7 nM; on KRAS_WT and SOS1 it was 1360 nM.
